Experimental findings from patent US11857634B2, “Cationic amphiphilic polymers for codelivery of hydrophobic agents and nucleic acids” (University of Pittsburgh—Of the Commonwealth System of …, priority 2018, dated 2024) are described below.

≈ marks a conversion by molar mass, not a printed value. Entries after “also recorded” stand apart in the source; their conditions may differ.

Data set [1] in a line: In vitro DOX release from POEG-st-Pmor micelles by dialysis. The data set is classed as physicochemical. The settings on record: first 4 hours, PBS, 37 °C. As to the method: In vitro drug release study for POEG-st-Pmor micelles. The in vitro DOX release kinetics for the POEG-st-Pmor micelles was determined by a dialysis method. Briefly, 0.5 ml of DOX-loaded micelles and micelles co-loaded with DOX and IL-36γ plasmid at a DOX concentration of 0.5 mg/mL were placed into a dialysis bag (MW cutoff 3,500), respectively. The dialysis bag was incubated in 100 mL PBS with gentle shaking at 37° C. Two ml of PBS solution outside of the dialysis bag was collected at different time points and equal amount of fresh PBS was added back. The concentrations of released DOX were determined by HPLC.

A short description of data set [2]: Cellular uptake of DOX by confocal laser scanning microscopy (POEG-st-Pmor). The class given is cell-based. The settings on record: 2 h of incubation. From the text:
The cellular uptake of DOX-loaded POEG-st-Pmor micelles was investigated by confocal laser scanning microscopy with free DOX as a control. […] This may, for example, be a result of different cellular uptake routes of free DOX and DOX micelles.

Data set [3] relates to 4T1.2 breast cancer lung metastasis. Briefly: Mouse model of breast cancer lung metastasis (4T1.2), POEG-st-Pmor formulations. The settings on record: i.v. every three days for three times; DOX 5 mg/kg, plasmid 50 μg per mouse. The class given is in vivo, mice. As to the method: Mouse model of breast cancer lung metastasis. Female Balb/c mice were injected with 2×10^5 4 T1.2 cells through the tail vein. Five days after tumor cell injection, mice were randomly divided into 6 groups. POEG-st-Pmor was chosen as a representative carrier system for codelivery of IL-36γ plasmid and DOX. […] The PBS treatment group was used as control. DOX dosage was 5 mg/kg and plasmid dosage was 50 μg per mouse. Lung tissues were harvested and weighted 11 days after the first injection. Pulmonary metastases were enumerated by intra-tracheal injection of India ink solution. India ink-injected lungs were washed in Feket's solution (300 ml 70% EtOH, 30 ml 37% formaldehyde and 5 ml glacial acetic acid) and white tumor nodules against a dark blue lung background were counted.
Histopathological analysis. The lung tissues were harvested and fixed in 10% formalin after the above treatments. The fixed samples were then embedded in paraffin and the tissue sections were stained with hematoxylin/eosin and analyzed for the presence of metastases under microscope. The total number of metastases per lung section was counted in different treatment groups.

The test system of data set [4] is immune cells in lung tissues. Nature of the data set: Tumor-infiltrating lymphocytes and MDSCs in tumor-bearing lungs, flow cytometry (POEG-st-Pmor). The data set is classed as in vivo, mice. Particulars: compared to untreated control group. As to the method:
Analysis of tumor-infiltrating lymphocytes and myeloid-derived suppressor cells. Lung tissues were collected in serum free RPMI medium and cut mechanically with scissors. Liberase TL (0.3 mg/ml) and DNase I (0.3 mg/ml) were used to digest the lung tissues and tumor nodules. Tissues were further grinded and filtered through a […] cell strainer. TILs and MDSC cells were further purified and stained with fluorescence-labeled antibody for flow cytometry analysis using a FACS flow cytometer.
(In general: A flow cytometer gives signals particle by particle.)

Data set [5] in a line: DOX release from POEG-PCre micelles by dialysis against DPBS. The data set is classed as physicochemical. The settings on record: first 4 h, DPBS pH 7.4, 37 °C. As to the method: The release kinetics of DOX from DOX-loaded POEG-PCre micelles was investigated by dialysis against DPBS of pH 7.4 at 37° C. […] To the contrary, only 16% of DOX was released from DOX/POEG-PCre micelles in first 4 h, and less than 40% of DOX was released for an extended period of 96 h.

In data set [6] the test system is 4T1.2 cells. Briefly: Intracellular co-delivery of DOX and MFP488-labeled tRNA-mir-34a, confocal microscopy. The class given is cell-based, murine. The settings on record: 4 h. As to the method: To monitor intracellular co-delivery of DOX and tRNA-mir-34a, tRNA-mir-34a was labeled with MFP488 fluorescent dye to visualize the cell uptake of tRNA-mir-34a along with red fluorescence of DOX. 4T1.2 cells were incubated for 4 h with micelle complexes carrying DOX and/or MFP488-labeled tRNA-mir-34a and then observed under a confocal microscope. Naked tRNA-mir-34a without any transfection agent was used as a negative control.

The subject of data set [7] is Dicer. Briefly: Induction of Dicer after treatment. The settings on record: dose dependent. The data set is classed as cell-based.
The test system of data set [8] is 4T1.2 cells. Briefly: In vitro cytotoxicity, MTT assay (POEG-PCre formulations). The data set is classed as cell-based, murine. The settings on record: 48 h; DOX 7.8-1,000 ng/mL, tRNA-mir 0.78-100 nM, carrier 78-10000 ng/mL. As to the method: The in vitro cytotoxicity of DOX+tRNA-mir-34a co-loaded POEG-PCre micelles was evaluated by MTT assay. Tumor cells were treated with various formulations for 48 h, with the doses of DOX, tRNA-mir, and POEG-PCre carrier ranging from 7.8 to 1,000 ng/mL, 0.78 nM to 100 nM, and 78 ng/mL to 10000 ng/mL, respectively. […] A similar trend was also observed in MDA-MB-231 breast cancer cells (FIG. 14B).

The test system of data set [9] is breast cancer cells. Briefly: Apoptosis assay, Annexin V/propidium iodide flow cytometry. The data set is classed as cell-based. As to the method:
The enhanced cytotoxicity of DOX+tRNA-mir-34a-co-loaded nanocomplexes was assessed via apoptosis assay. Cell apoptosis was evaluated quantitatively by Annexin V/propidium iodide flow cytometry.

Data set [10] concerns 4T1.2 cancer cells. Briefly: Cell migration, wound closure assay. The data set is classed as cell-based, murine. Particulars: 4T1.2, 24 h. The text has this: Besides cancer cell viability, cell migration represents a critical process for tumor progression and metastasis. MiR-34a has been reported to be functional as an anti-metastatic miRNA by directly targeting CD44 and NOTCH-1. Therefore, the effect of tRNA-mir-34a and DOX co-loaded nanocomplexes on the cell migration was investigated using the wound closure assay.

Data set [11] concerns 4T1.2 tumor metastasis. Nature of the data set: Breast cancer lung metastasis model (4T1.2), POEG-PCre formulations. The data set is classed as in vivo, mice. The settings on record: i.v. every 3 d for 3 times, analysed 5 days after last treatment. As to the method:
The in vivo anti-tumor efficacy of DOX+tRNA-mir-34a co-loaded nanocomplexes was evaluated in a breast cancer lung metastasis model, generated by tail-vein injection of 4T1.2 tumor cells into female Balb/c mice. Five days after tumor inoculation, various treatments were applied to each group of mice (n=5) via i.v. administration every 3 d for 3 times. The tumor burdens in the lungs were analyzed 5 days after the last treatment. […] No significant decrease of body weight was observed, indicating the safety of the formulation (FIG. 15C).
To further confirm the anticancer efficacy, H&E staining and immunohistochemical analysis of Ki67 were performed in tumor-bearing lungs.

Data set [12] is described as follows: Toxicity: body weight, blood chemistry, H&E staining of major organs. Particulars: mouse, in vivo. More on the design: species or system mice. As to the method:
In addition, blood chemistry tests were performed to evaluate the effect of our formulations on liver and kidney functions. […] Moreover, the H & E staining of major organs was carried out to further evaluate the potential toxicity of different treatments.

The test system of data set [13] is immune cells in tumor-bearing lungs. Nature of the data set: Immune cells in tumor-bearing lungs (POEG-PCre formulations). Details: species or system mice. Particulars: mouse, in vivo. From the text:
Treatment with tRNA-mir-34a alone or tRNA-mir-34a/DOX combination reduced the numbers of PD1+ CD8 cells (FIG. 16D) and T-regulatory cells (Tregs) (FIG. 16E).

Data set [14] can be described thus: Intracellular uptake and distribution of DOX at pH 6.8 and 7.4, CLSM. Particulars: 4 h incubation. The data set is classed as cell-based. From the text:
Intracellular uptake and distribution of DOX-loaded micelles and IL-12/DOX co-loaded PMet-P(cdmPEG2K) micelleplexes was investigated by CLSM.

Data set [15] deals with 4T1.2 breast cancer cells. Briefly: In vitro cytotoxicity, MTT assay (POEG-st-Pmor formulations). The settings on record: 4T1.2 cells, 72 h. On the technique in general: Formazan colour is commonly taken as a measure of viable cells.
Protocol: Briefly, 4T1.2 cells (2,000 cells/well) were seeded in 96-well plates for overnight and were treated with various concentrations of DOX formulations for 72 h. MTT solution was added to each well and MTT formazan was solubilized by DMSO after 2 h of incubation. The absorbance in each well was measured by a microplate reader at a wavelength of 570 nm. Cell viability was calculated as [(ODtreat−ODblank)/(ODcontrol−ODblank)×100%]. The cytotoxicity of POEG-st-Pmor micelles alone was similarly tested in 4T1.2 cells as described above.

As to `COc1cccc2c1C(=O)c1c(O)c3c(c(O)c1C2=O)C[C@@](O)(C(=O)CO)C[C@@H]3O[C@H]1C[C@H](N)[C@H](O)[C@H](C)O1` [free DOX, Doxorubicin], in [1], the DOX released is 80%. Moreover, in data set [2], the “Intracellular location of DOX signals” value was “largely found in the nucleus”. The “Antitumor activity / inhibition of lung metastasis” value in data set [3] is listed as “significant inhibition of lung metastasis; also recorded: significant activity”. Also, in data set [4], the “CD4+ T cells in lung tissues” value is “significant increase” and the “CD8+ T cells in lung tissues” value is given as “significant increase”. For the same compound, the DOX released entry in data set [5] is listed as “more than 80%”. In addition, in data set [6], the “Intracellular location of fluorescence signals” value is recorded as “largely found in the nucleus”. In addition, in [7], the Dicer expression entry is “induction of Dicer”. Besides, the “Cell growth inhibition / cytotoxicity” value in [8] was “inhibited the proliferation of tumor cells in a dose dependent manner”. Moreover, the Cell apoptosis in data set [9] was approximately 31%. Moreover, in [10], the “Inhibition of cell migration” value was approximately 40%. For the same compound, the “Inhibition of lung metastasis / tumor nodules in lungs” value in [11] is on record as “Dramatic reduction in the number of tumor nodules”. Further, the “Pathological changes, H&E staining of major organs” value in data set [12] was “signs of myocytolysis and myofibrillolysis with fibrils dearrangement; also recorded: hepatocellular vacuolation”. Moreover, in [13], the “Numbers of CD4 cells in tumor-bearing lungs” value is “significant increase”, the “Numbers of CD8 cells in tumor-bearing lungs” value is reported as “significant increase”, the “Numbers of MDSC” value is “trend of decreases” and the “Numbers of functional CD8 (IFN-γ+ CD8) cells” value is recorded as “trend of increase”. For the same compound, in data set [14], the “Cellular uptake compared with DOX-loaded micelles” value is listed as “slightly stronger fluorescence signal” and the “Intracellular DOX fluorescence at pH 6.8 versus pH 7.4” value was “not significantly affected by pH”. Further, the Cytotoxicity entry in data set [15] (DOX 4 to 1000 ng/mL) is “dose-dependent cell killing profile”. Moreover, the 50% inhibitory concentration (IC50) in data set [15] (MTT, as DOX) is 0.13 µg/mL (≈ 0.239 µM).

Broadly, the IC50 is the concentration that inhibits the measured activity by half.
